Entries after “also recorded” stand apart in the source; their conditions may differ.
Columns and labels:
[1] = system: Saccharomyces cerevisiae yeast; assay: induction of lethal effects in yeast with 365 nm irradiation (UVA); assay type: cell-based; settings: for photodynamic activity (oxygen dependent) on induction of lethal damages: yeast
Protocol: (§1) This photobiological activity has in effect been defined by the induction of lethal effects, the induction of "small colony" cytoplasmic mutations (damage in the mitochondrial DNA) and the induction of nuclear mutations (reverse and forward). The experiments were conducted in the customary manner in conformity with the following references:
Thus, the dose of UVA must be between 2.5 and 5 times weaker in the case of compounds 1a and 1b than in the case of 8-MOP to attain the same survival rate.

[2] = system: psoriasis; settings: human, in vivo; cited from earlier work
[3] = system: normal human skin; assay: erythema test on normal human skin (forearm); assay type: in vivo; settings: for erythematogenicity (conclusion): in vivo
Protocol: The clinical and therapeutic activity of compounds 1a and 1b has been also measured on human skin. 10 mg of compounds 1a and 1b were diluted in 2 g of a purified lanolin commercially available under the name ROC hydrocerine which was made liquid by heating to 60° C. This local preparation was first tested on normal human skin (of the forearm). An amount of 10 micrograms/cm2 of products 1a and 1b was applied to a circular cutaneous surface 3 cm in diameter. The two products were left on the skin for 2 hours to insure a sufficient cutaneous penetration. […] The same experiment was repeated a second time with irradiation of 20 J/cm2 through a glass plate in order to filter out all the ultraviolet B radiation. […] This erythema, slightly apparent, continued for 18 days. […] The […] result of the reflective photoplethysmograph were totally identical for products 1a and 1b. […] The […] only appeared in doses of irradiation where are twice that customarily used in a therapeutic treatment.

[4] = mice, after exposure to light in the near ultraviolet range around 365 nm; cited from earlier work
[5] = system: DNA; assay: photoaffinity for DNA in vivo; assay type: cell-based, yeast
[6] = system: DNA; assay: formation of cross-links in DNA (general statements); assay type: biochemical; settings: from induction of cytoplasmic and nuclear mutations
[7] = system: synthesis of DNA; assay: photosensitizer effect on DNA synthesis in human fibroblasts; assay type: cell-based; settings: UVA 365 nm
Text: (§2) (F. Bordin, F. Baccichetti and L. Musajo, Experientia 28, 148 (1972)).
(§3) The cells cultivated in Petri dishes having a minimum Eagle medium with 10% embryonic calf serum were marked by precursors which were specific to the exponential phase of growth. The rates of synthesis were estimated by measuring the incorporation of the radioactive precursors in the acid-precipitable material (see S. Nocentini, Biochim. Biophys., Acta 521, 160 (1978)).

[8] = system: V79 chinese hamster cells; assay: antiproliferatory effect: inhibition of colony formation of V79 cells; assay type: cell-based; settings: 5×10^-6 M
Protocol: The photobiological activity of the two monofunctional componds 1a and 1b have been studied in mammalian cells in vitro in order to determine their antiproliferatory effect.
A diploid strain of V79 chinese hamster cells were used.
The action of the compounds on cell survival (i.e. the antiproliferatory effect) was determined by measuring their power to inhibit the capacity of cells to form colonies. The technique used is that described by C.

[9] = system: psoriatic plaque; assay: therapeutic test on psoriatic plaque, products 1a and 1b; assay type: in vivo, human
Protocol: 10 mg of compounds 1a and 1b were diluted in 2 g of a purified lanolin commercially available under the name ROC hydrocerine which was made liquid by heating to 60° C. Products 1a and 1b have also been tested in the same excipient on a high inflammatory psoriatic plaque. These two products were applied to surfaces having a 3 cm diameter. On a third surface the excipient alone was applied. […] The products and the lanolin alone were applied 2 hours before irradiation. […] This whitening was practically as fast in the zones treated with products 1a and 1b. The zone treated with lanolin alone remained unchanged.

[10] = system: DNA of cells of the wild type; assay: direct biochemical verification of cross-linking in DNA of cells treated and irradiated at 365 nm; assay type: cell-based, yeast
Text: Indeed, DNA of cells of the wild type were extracted immediately after treatment with products 1a, 1b at a concentration of 10^-5 M and irradiation with two doses of radiation at 365 nm (30% and 5% survival rate). […] If the DNA contains cross-links it renatures itself and is found in the double chain form separable by gradient density from single chain DNA.

[11] = system: psoriatic plaque; assay: therapeutic test comparing 8-methoxypsoralen and product 1b; assay type: in vivo, human; settings: 10^-2 M
Text: The concentrations of 8-MOP and product 1b were 10^-2 M in the same excipient as that used in the previous therapeutic test. Both preparations were applied on two rounded zones 3 cm in diameter, located on the same psoriatic plaque and were irradiated according to the same procedure of gradually increasing ultraviolet irradiation until a maximum of 10 J/cm2 per treatment.

[12] = mutagenicity (general statements)
[13] = system: haploid strain of Saccharomyces cerevisiae yeast; assay: induction of nuclear mutations: His+ reversions; assay type: cell-based; settings: 5×10^-6 M, same survivor rate
Protocol: as §1
The induction of nuclear mutations (reversions and "forward" mutations) has been determined according to procedures described in the above-mentioned articles.

[14] = system: mitochondrial DNA; assay: induction of "small colony" cytoplasmic mutations; assay type: cell-based, Saccharomyces cerevisiae; settings: in 10% of the survivors
Protocol: as §1
If the induction of cytoplasmic mutations is considered as a function of the survivors, the compounds 1a and 1b which are monofunctional derivatives of psoralen, show in 10% of the survivors a rate of induction of cytoplasmic mutation greater than 50%.

[15] = system: synthesis of RNA; assay: photosensitizer effect on RNA synthesis in human fibroblasts; assay type: cell-based; settings: UVA 365 nm
Text: as §2, §3

[16] = system: Saccharomyces cerevisiae yeast; assay: induction of forward mutations (resistance to canavanine); assay type: cell-based
Protocol: This photobiological activity has in effect been defined by the induction of lethal effects, the induction of "small colony" cytoplasmic mutations (damage in the mitochondrial DNA) and the induction of nuclear mutations (reverse and forward). The experiments were conducted in the customary manner in conformity with the following references: […]

[17] = system: yeast mutant pso2; assay: sensitivity of yeast mutant pso2 versus wild type to photo-addition
[18] = system: normal skin; assay: pigmentogenic properties on normal skin; assay type: in vivo, human; settings: 0.5%
Text: The pigmentogenic properties of products 1a and 1b have been tested on normal skin at a concentration of 0.5%.

[19] = spectroscopic absorption properties; assay type: physicochemical; settings: compared with psoralen
Text: Compounds 1a and 1b have similar spectroscopic properties which differ markedly with respect to those of psoralen.

[20] = 30 micrograms/cm2, by the tenth treatment
[21] = 30 micrograms/cm2, from the fourth treatment
[22] = 10 micrograms/cm2, UVA 20 J/cm2

CCOC(=O)c1cc2cc3ccoc3cc2oc1=O [3-carbethoxypsoralen, reference compound]
photodynamic activity (oxygen dependent) on induction of lethal damages [1]: different
therapeutic activity in patients having psoriasis [2]: having a therapeutic activity in respect to patients having psoriasis
erythematogenicity (conclusion) [3]: is not
carcinogenicity [4]: completely safe from this point of view

Cc1c2occc2cc2c1oc(=O)c1cnccc12 [Compound 1b, Methyl-7-pyrido (3,4-c) furo (3,2-g) coumarin]
photoaffinity for DNA in vivo compared with 3-CPs [5]: makedly much high than that of monofunctional furocoumarin 3-CPs
photoaffinity for DNA in vivo relative to 8-MOP [5]: ~20 times
photoaffinity in respect to DNA compared with 8-MOP (conclusion) [5]: markedly greater than that of 8-MOP
formation of cross-links in the DNA (conclusion) [6]: incapable of forming cross-links in the DNA
inhibition capacity (DNA) compared with 3-CPs [7]: much more than 3-CPs
inhibition capacity (DNA) compared with 8-MOP [7]: slightly more powerful than 8-MOP
LD10 (dose which leaves 10% survive) ([8]; UVA): 540 J/cm2
considerable photosensitivity in V79 cells ([8]; UVA): considerable photosensitivity
relative antiproliferatory effect ([8]; UVA): markedly more effective than compound 1a; also recorded: compared to 8-MOP, a higher antiproliferatory effect; also recorded: comparable to that of bifunctional furocoumarins
diminution of cell survival in absence of radiation ([8]; no radiation): no diminution of cell survival
antipsoriatic action, third patient ([9]; 30 μg/cm2 two hours before UVA): complete whitening of the psoriasis
antipsoriatic action, two of three patients ([9]; 30 μg/cm2 two hours before UVA): moderately better than product 1a
pigmentogenic effect, two of three patients ([9]; 30 μg/cm2 two hours before UVA): more pigmentogenic
antipsoriatic action of product 1b versus 1a (overall) ([9]; 10 treatments of PUVA, total dose 50 J/cm2): antipsoriatic action superior to that of product 1a
erythema or secondary effect during treatments ([9]; 30 micrograms/cm2): no erythema or secondary effect was observed
hyperpigmentation ([9]; 30 micrograms/cm2): hyperpigmentation was found in the two zones, in particular the one treated with product 1b
total UVA dose to complete whitening [9, 20]: 50 J/cm2
whitening of treated zones [9, 20]: complete whitening of the zones treated
decrease of squamae [9, 21]: slight decrease of the squamae
reduction of infiltration [9, 21]: tangible reduction of the infiltration
antipsoriatic activity (conclusion) ([9]; applied locally): good antipsoriatic activity; also recorded: best therapeutic results
form of DNA after renaturation (cross-links) ([10]; 10^-5 M, 365 nm, two doses (30% and 5% survival rate)): remains in single chain form after renaturation
functional type (mono/bifunctional) ([10]; pso2 mutant and direct examination of DNA): mono functional type
photoreactivity compared with 4,5',8-trimethylpsoralen (conclusion) [1]: close to that of 4,5'-8-trimethylpsoralen
activity on cell survival relative to 8-MOP ([1]; 5×10^-6 M, survival curves): 5 times
activity compared with 4,5',8-trimethylpsoralen ([1]; equimolar 5×10^-6 M): activity close to that of 4,5', 8-trimethylpsoralen
photodynamic activity (oxygen dependent) on induction of lethal damages [1]: do not exert on the yeast photodynamic activity
deterioration after end of treatment ([11]; one patient without further treatment): practically no deterioration
antipsoriatic effectiveness compared with 8-methoxypsoralen ([11]; three patients, up to 10 J/cm2 per treatment): more effective than 8-methoxypsoralen
mutagenicity compared with 3-carbethoxypsoralen (conclusion) [12]: less mutagenic than 3-carbethoxypsoralen
erythema at 5 J/cm2 ([3]; 10 micrograms/cm2, 2 hours before UVA 5 J/cm2): no precocious or delayed erythema was observed
duration of erythema [3, 22]: 18 days
time of appearance of erythema [3, 22]: 72 h
erythema at 20 J/cm2 ([3]; 10 micrograms/cm2, UVA 20 J/cm2 through glass plate): slight erythema
desquamation or local pain ([3]; UVA 20 J/cm2): no desquamation or local pain
systolic pulse of the capillaries at erythematic zones (reflective photoplethysmography) ([3]; UVA 20 J/cm2): doubling of the systolic pulse
erythematogenicity (conclusion) [3]: not erythmatogenic in conditions of irradiation customarily used in human therapy; also recorded: very mildly erythmatogenic
His+ reversions rate compared with 3-CPs [13]: less than that observed after the treatment with 3-CPs
His+ reversions rate compared with 8-MOP and 4,5',8-TMeP [13]: very much less than that observed after treatment with the bifunctional agents 8-MOP and 4,5', 8-TMeP
rate of induction of cytoplasmic mutation [14]: greater than 50%
inhibition capacity (RNA) compared with 3-CPs [15]: much more than 3-CPs
inhibition capacity (RNA) compared with 8-MOP [15]: slightly more powerful than 8-MOP
forward mutations as a function of surviving fractions compared with 3-CPs, 8-MOP and 4,5',8-TMeP [16]: markedly less mutagenic than 3-CPs and the bifunctional compounds 8-MOP and 4,5', 8-TMeP
forward mutations as a function of UVA doses compared with 3-CPs ([16]; 5×10^-6 M versus 3-CPs at 5×10^-5 M): comparable to those obtained with 3-CPs at 5×10^-5 M
photoreactivity on yeast strains [17]: very photoreactive
sensitivity of pso2 mutant compared with wild type ([17]; photo-addition): same sensitivity as the wild type
pigmentogenic properties, 1b versus 1a [18]: superior to those of product 1a; also recorded: more pigmentogenic than product 1a
pigmentation of normal skin ([18]; three normal patients, total UVA doses of 140 J/cm2): Visible pigmentation was observed on three normal patients tested with product 1b in all three cases
coefficient of molecular absorption at 365 nm [19]: notably a higher coefficient of molecular absorption at 365 nm

From patent publication US4464354A, “(3,4-c)-Pyrido psoralens, process of preparation, application in cosmetology and therapeutics, and cosmetological and pharmaceutical composition with them” (Institut National de la Sante et de la Recherche Medicale, priority 1982, dated 1984)
